{"source": "the NIST ThermoML archive (doi:10.1016/j.jct.2018.12.036)", "conditions": "Plate method", "note": "± gives the expanded uncertainty stated by the source.", "data": [{"smiles": "CCCC[n+]1ccn(C)c1.O=S(=O)([N-]S(=O)(=O)C(F)(F)F)C(F)(F)F", "values": [{"measurement": "surface tension liquid-gas", "setting": "293.15 K", "value": "33.29 ± 0.43", "unit": "mN/m"}, {"measurement": "surface tension liquid-gas", "setting": "298.15 K", "value": "33.07 ± 0.43", "unit": "mN/m"}, {"measurement": "surface tension liquid-gas", "setting": "303.15 K", "value": "32.88 ± 0.43", "unit": "mN/m"}, {"measurement": "surface tension liquid-gas", "setting": "308.15 K", "value": "32.67 ± 0.43", "unit": "mN/m"}, {"measurement": "surface tension liquid-gas", "setting": "313.15 K", "value": "32.49 ± 0.43", "unit": "mN/m"}, {"measurement": "surface tension liquid-gas", "setting": "318.15 K", "value": "32.29 ± 0.43", "unit": "mN/m"}, {"measurement": "surface tension liquid-gas", "setting": "323.15 K", "value": "32.11 ± 0.43", "unit": "mN/m"}]}, {"smiles": "CCCCn1cc[n+](C)c1.F[P-](F)(F)(F)(F)F", "note": "[1-butyl-3-methylimidazolium hexafluorophosphate]", "values": [{"measurement": "surface tension liquid-gas", "setting": "293.15 K", "value": "44.56 ± 0.46", "unit": "mN/m"}, {"measurement": "surface tension liquid-gas", "setting": "298.15 K", "value": "44.32 ± 0.46", "unit": "mN/m"}, {"measurement": "surface tension liquid-gas", "setting": "303.15 K", "value": "44.11 ± 0.46", "unit": "mN/m"}, {"measurement": "surface tension liquid-gas", "setting": "308.15 K", "value": "43.88 ± 0.46", "unit": "mN/m"}, {"measurement": "surface tension liquid-gas", "setting": "313.15 K", "value": "43.63 ± 0.46", "unit": "mN/m"}, {"measurement": "surface tension liquid-gas", "setting": "318.15 K", "value": "43.42 ± 0.46", "unit": "mN/m"}, {"measurement": "surface tension liquid-gas", "setting": "323.15 K", "value": "43.18 ± 0.45", "unit": "mN/m"}]}, {"smiles": "CCCCn1cc[n+](C)c1.F[B-](F)(F)F", "note": "[1-butyl-3-methylimidazolium tetrafluoroborate]", "values": [{"measurement": "surface tension liquid-gas", "setting": "293.15 K", "value": "44.75 ± 0.46", "unit": "mN/m"}, {"measurement": "surface tension liquid-gas", "setting": "298.15 K", "value": "44.52 ± 0.46", "unit": "mN/m"}, {"measurement": "surface tension liquid-gas", "setting": "303.15 K", "value": "44.16 ± 0.46", "unit": "mN/m"}, {"measurement": "surface tension liquid-gas", "setting": "308.15 K", "value": "43.95 ± 0.46", "unit": "mN/m"}, {"measurement": "surface tension liquid-gas", "setting": "313.15 K", "value": "43.63 ± 0.46", "unit": "mN/m"}, {"measurement": "surface tension liquid-gas", "setting": "318.15 K", "value": "43.34 ± 0.46", "unit": "mN/m"}, {"measurement": "surface tension liquid-gas", "setting": "323.15 K", "value": "42.98 ± 0.45", "unit": "mN/m"}]}]}
